For 39 molecules, outcome results are on record in PubChem BioAssay AID1205 (EPA DSSTox, 2008).

SMILES strings stand for the structures. Activity calls are given as the source filed them.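 Rule for the calls: active = tumour findings in long-term animal cancer tests in more than one sex, species or organ; inactive = no tumour finding and more than one negative test.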

This data set is described as follows: DSSTox (CPDBAS) Carcinogenic Potency Database Summary MultiCellCall Results. As to conditions: animal carcinogenicity bioassays, multi-cell call summary. The method, boiled down: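 ActivityScore sums 50 for multispecies, 30 for multisex and 20 for multisite positivity. Based on the most positive experiment per sex-species across standardised chronic rodent and other animal cancer tests.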
With `O=Nc1ccc(Nc2ccccc2)cc1`, the outcome was “active; multispecies active”.
Regarding `IC(I)I`, the outcome is “inactive; multisex inactive; multispecies inactive”.
Take `CC(C)(C)c1cc(O)ccc1O`: the outcome was “inactive; multisex inactive”.
Consider `Cc1cc(Cc2cc(C)cc(C(C)(C)C)c2O)c(O)c(C(C)(C)C)c1`, for which the outcome is “inactive; multisex inactive”.
Take `O=c1cc[nH]c(=S)[nH]1`: the outcome was “active; multisite active; multisex active; multispecies active”.
On to `Nc1ccc(N(CCO)CCO)cc1`, for which the outcome is “inactive; multisex inactive”.
Turning to `Nc1ncn[nH]1`, the outcome was “active; multisite active; multisex active; multispecies active”.
With `O=C1OC(=O)c2ccccc21`, the outcome was “inactive; multisex inactive; multispecies inactive”.
As for `CCC1(c2ccccc2)C(=O)NC(=O)NC1=O`, the outcome was “active; multisex active”.
As for `C=CC(=O)OCC`, the outcome is “active; multisex active; multispecies active”.
Regarding `CC(C)(C)c1cc(C(C)(C)C)c(O)c(C(C)(C)C)c1`, the outcome is “inactive; multisex inactive”.
For the molecule `O=NN1CCNCC1`, the outcome is “active; multisite active; multisex active”.
Take `CN1CCC[C@H]1c1cccnc1`: the outcome is “inactive; multisex inactive”.
As for `COc1cc2c(c3oc4cccc(O)c4c(=O)c13)C1C=COC1O2` (centres undefined), the outcome was “active; multisite active; multisex active; multispecies active”.
Consider `CN(C)c1ccc(C(=C2C=CC(=[N+](C)C)C=C2)c2ccc(N(C)C)cc2)cc1`, for which the outcome was “active; multisite active; multisex active”.
As to `Cl`, the outcome is “inactive; multisex inactive”.
On to `CN(C)C(=O)Nc1ccc(Cl)c(Cl)c1`, for which the outcome is “inactive; multisex inactive”.
On to `O=C(O)c1cccnc1`, for which the outcome is “inactive; multisex inactive”.
Consider `FC(Cl)(Cl)Cl`, for which the outcome is “inactive; multisex inactive; multispecies inactive”.
With `Nc1nc(N)nc(-c2ccccc2)n1` the entry was “inactive; multisex inactive; multispecies inactive”.
On to `CCC(=O)C(CC(C)N(C)C)(c1ccccc1)c1ccccc1` (centres undefined), for which the outcome is “inactive; multisex inactive; multispecies inactive”.
For `O=[As]O`, the outcome was “inactive; multispecies inactive”.
`O=P(=O)O`: the outcome is “inactive; multisex inactive”.
With `O=C(O)C(Cl)(Cl)Cl`, the outcome is “active; multisex active”.
As to `CCCOC(=O)c1cc(O)c(O)c(O)c1`, the outcome was “inactive; multisex inactive; multispecies inactive”.
In the case of `CCCCCN(CCCCC)N=O` it was “active; multisex active”; in that of `Oc1cccc2cccnc12`, “inactive; multisex inactive; multispecies inactive”; in that of `O=NN1CCCCC1`, “active; multisite active; multisex active; multispecies active”.
For the molecule `CNC(=O)O/N=C/C(C)(C)SC`, the outcome is “inactive; multisex inactive; multispecies inactive”.
In the case of `CCC[CH2][Sn]([CH2]CCC)([O]C(C)=O)[O]C(C)=O`, the outcome was “inactive; multisex inactive; multispecies inactive”.
For `c1ccc2sc(SN3CCOCC3)nc2c1`, the outcome is “inactive; multisex inactive”.
Regarding `CCNc1nc(Cl)nc(NCC)n1`, the outcome is “inactive; multisex inactive”.
For the molecule `CC/C(=C(/CC)c1ccc(O)cc1)c1ccc(O)cc1`, the outcome is “active; multisite active; multisex active; multispecies active”.
In the case of `C=CCN(N=O)C(N)=O` it was “active; multisite active; multisex active”; in that of `O=C1c2ccccc2CN2C(=O)c3ccccc3CN12`, “active; multisite active; multisex active”.
Consider `CNc1ccc(N(CCO)CCO)cc1[N+](=O)[O-]`, for which the outcome is “active; multisite active; multisex active; multispecies active”.
As to `C=C(F)F`, the outcome is “inactive; multisex inactive”.
Take `CCCCCl`: the outcome was “inactive; multisex inactive; multispecies inactive”.
`CN(C)CCN(Cc1ccsc1)c1ccccn1`: the outcome was “inactive; multisex inactive”.
